{
  "source": "paper PMC6934184",
  "about": "“Selective DNA-PKcs inhibition extends the therapeutic index of localized radiotherapy and chemotherapy” (The Journal of Clinical Investigation, 2019)",
  "biological_target": "T1, RPS6KA5 (MSK1) (Homo sapiens, UniProt O75582)",
  "T1 construct": "purchased Thermo Fisher Scientific (Life Technologies) SelectScreen",
  "T1 sequence (O75582 whole entry)": "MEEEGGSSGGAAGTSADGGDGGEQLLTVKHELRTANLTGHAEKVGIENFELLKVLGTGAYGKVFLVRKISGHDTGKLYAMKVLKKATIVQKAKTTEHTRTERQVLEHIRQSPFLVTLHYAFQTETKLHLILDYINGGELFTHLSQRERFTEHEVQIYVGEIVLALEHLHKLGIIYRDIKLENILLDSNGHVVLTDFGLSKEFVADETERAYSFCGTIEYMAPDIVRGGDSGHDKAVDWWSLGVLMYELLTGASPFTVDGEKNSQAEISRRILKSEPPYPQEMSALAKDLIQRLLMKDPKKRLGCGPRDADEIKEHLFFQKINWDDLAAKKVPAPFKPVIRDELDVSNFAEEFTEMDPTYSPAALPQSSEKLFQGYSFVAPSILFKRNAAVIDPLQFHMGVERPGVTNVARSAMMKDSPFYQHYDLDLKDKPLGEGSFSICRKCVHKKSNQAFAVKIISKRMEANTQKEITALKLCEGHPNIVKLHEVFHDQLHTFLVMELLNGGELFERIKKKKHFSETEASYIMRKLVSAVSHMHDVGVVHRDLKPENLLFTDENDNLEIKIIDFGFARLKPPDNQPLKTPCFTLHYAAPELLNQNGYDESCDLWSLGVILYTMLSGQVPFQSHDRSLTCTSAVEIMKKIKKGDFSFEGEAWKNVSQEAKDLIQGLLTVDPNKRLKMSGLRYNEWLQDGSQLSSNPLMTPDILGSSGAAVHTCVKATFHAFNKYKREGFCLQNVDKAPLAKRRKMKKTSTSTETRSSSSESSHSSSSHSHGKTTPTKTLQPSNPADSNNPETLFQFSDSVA",
  "assay": "SelectScreen Z'LYTE",
  "assay_type": "biochemical",
  "method_in_brief": "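Percent values come from Thermo SelectScreen profiling of NU5455, combining activity and binding assays. CSF1R was run in Z'LYTE format at Km app ATP, and CAMK1 in Adapta format with ATP listed at 10.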",
  "data": [
    {"smiles": "CN(C(=O)CN1CCOCC1)c1ccc2sc3c(-c4cccc5c(=O)cc(N6CC7CCC(C6)O7)oc45)cccc3c2c1", "note": "[NU5455]", "values": [
      {"measurement": "inhibition at 1 µM", "value": 7.4, "unit": "%"}
    ]}
  ]
}
